Assay [1] relates to ADDP human ovarian carcinoma cell line. The experiment in a line: Cell proliferation (MTT) assay, ADDP cells. The assay is classed as cell-based. The protocol:
(§1) 6.1 Cell Proliferation (MTT) Assay Single cell suspensions of viable trypsinised cells were seeded into 96-well tissue culture plates at a density of 2×10^3 cells per well in a volume of 100 μl of a suitable culture media supplemented with heat inactivated foetal calf serum (FCS) (e.g., Dulbecco's Modified Eagles Medium (DMEM), with 10% v/v FCS, 1% L-glutamine, 2% (v/v) Hepes, and antibiotics). A set of triplicate wells was prepared for each concentration of the peptide dendrimer being tested. Additional sample wells containing untreated cells or media alone were set up in each treatment plate and processed in parallel as reference controls. A zero-time plate of untreated cells and media-alone wells was simultaneously prepared and an MTT assay carried out on this plate at the time of addition of the kinase inhibitor (i.e., polypeptide or dendrimer) to treatment plates. All plates were cultured for 24 hours before addition of the test dendrimer.
(§2) To prepare the MTT solution 100 mg of MTT (3-(4,5-dimethylthiazolyl-2)-2,5-diphenyltetrazolium bromide) (Cat #. M-128, Sigma, St Louis Mo.), is mixed with 20 ml of PBS at pH 7.4. The resulting solution is filter sterilized (0.2 μM syringe filter) and stored at 4° C. protected from light until use. MTT substrate is cleaved in growing cells to yield a water insoluble salt. After solubilisation of the salt crystals, a coloured product is produced the measurement of which allows quantitation of the proliferative activity of the cultured cells.
(§3) Appropriate concentrations of the kinase inhibitor were prepared by dilution of freshly prepared sterile 1 mM stock solutions into cell culture media to give a final well volume of 200 μl containing 10% v/v FCS. The zero-plate was processed by addition of MTT at this time. Cell culture was continued for a further 24 or 48 hours before addition of 20 μl of MTT in PBS (5 mg/ml, 0.2 um filter sterilised). The MTT cell proliferation assay measures cell proliferation rate and, in instances where cell viability is compromised, the assay indicates a comparative reduction in cell viability. After a 3 hour incubation in the presence of MTT (5% CO2 in air at 37° C.), plates were centrifuged at 450 g for 5 minutes, supernatant was removed by gentle suction and precipitated tetrazolium salt resuspended into 150 μl DMSO:glycine (0.1M glycine, 0.1M NaCl pH 10.5) (6:1 v/v) solution. Plates were gently vortexed to complete solubilisation of crystalline material and absorbance was read at 550 nm using a microplate reader. Sample data were processed to determine the comparative growth of treated samples relative to untreated controls.

The test system of assay [2] is HT29 human colon cancer cells. As to the kind of experiment: Cell proliferation (MTT) assay, HT29 cells. The assay is classed as cell-based. The protocol: as §1, §2, §3
HT29 cells were cultured for 48 hours in the presence of selected dendrimers and proliferation of the cells was assessed by MTT assay essentially as described in Example 6.1. The results were calculated as percentage proliferation of control cells (not treated with dendrimer).

A further assay concerns the target PI3K P110δ (Homo sapiens, UniProt O00329). As to the kind of experiment: PI3K HTRF activity assay. As to conditions: dendrimer conc. 1 μM; read-out: Percentage (%) kinase inhibition PI3K P110δ. The assay is classed as biochemical. On the procedure: (§4) In a final reaction volume of 20 μL, the test PI3K is incubated in assay buffer containing 10 μM phosphatidylinositol-4,5-bisphosphate and MgATP. The reaction is initiated by the addition of the MgATP mix. After incubation for 30 minutes at room temperature, the reaction is stopped by the addition of 5 μL of stop solution containing EDTA and biotinylated phosphatidylinositol-3,4,5-trisphosphate. Finally, 5 μL of detection buffer is added (containing europium-labelled anti-GST monoclonal antibody, GST-tagged GRP1 PH domain and streptavidin-allophycocyanin). The test plate is then read in time-resolved fluorescence mode and the homogenous time-resolved fluorescence (HTRF) signal is determined according to the formula HTRF=10000×(Em665 nm/Em620 nm).
(In general: Time-resolved FRET reads energy transfer from a long-lived donor to a nearby acceptor.)

The target of the next assay is PI3K beta (Homo sapiens, UniProt P42338). As to the kind of experiment: PI3K HTRF activity assay. The settings on record: dendrimer conc. 1 μM; read-out: Percentage (%) kinase inhibition PI3K P110β. The assay is classed as biochemical. The protocol:
as §4

The next assay has as its target c-RAF (h) (Homo sapiens, UniProt P04049). The experiment in a line: c-RAF kinase activity assay. The assay is classed as biochemical. The settings on record: dendrimer conc. 1 μM; read-out: Percentage (%) kinase inhibition c-RAF. The protocol: In a final reaction volume of 25 μL, c-RAF (h) (5-10 mU) is incubated with 25 mM Tris pH 7.5, 0.02 mM EGTA, 0.66 mg/mL myelin basic protein, 10 mM MgAcetate and [γ-33P-ATP] (specific activity approx. 500 cpm/pmol, concentration as required). The reaction is initiated by the addition of the MgATP mix. After incubation for 40 minutes at room temperature, the reaction is stopped by the addition of 5 μL of a 3% phosphoric acid solution. 10 μL of the reaction is then spotted onto a P30 filtermat and washed three times for 5 minutes in 75 mM phosphoric acid and once in methanol prior to drying and scintillation counting.

The target of another assay is MEK1 (h) (Homo sapiens, UniProt Q02750). The experiment in a line: MEK1 kinase activity assay. The assay is classed as biochemical. As to conditions: dendrimer conc. 1 μM; read-out: Percentage (%) kinase inhibition MEK1. The protocol:
The reaction is initiated by the addition of the MgATP. After incubation for 40 minutes at room temperature, 5 μL of this incubation mix is used to initiate an ERK2 (m) assay.

The next assay deals with PKB beta (Homo sapiens, UniProt P31751). The experiment in a line: PKB kinase activity assay. The assay is classed as biochemical. The settings on record: dendrimer conc. 1 μM; read-out: Percentage (%) kinase inhibition PKB beta. The protocol:
(§5) In a final reaction volume of 25 μL, PKB(h) (5-10 mU) is incubated with 8 mM MOPS pH 7.0, 0.2 mM EDTA, 30 μM GRPRTSSFAEGKK (SEQ ID No. 26), 10 mM MgAcetate and [γ-33P-ATP] (specific activity approx. 500 cpm/pmol, concentration as required). The reaction is initiated by the addition of the MgATP mix. After incubation for 40 minutes at room temperature, the reaction is stopped by the addition of 5 μL of a 3% phosphoric acid solution. 10 μL of the reaction mixture is then spotted onto a P30 filtermat and washed three times for 5 minutes in 75 mM phosphoric acid and once in methanol prior to drying and scintillation counting.

The target of a further assay is PKB gamma (Homo sapiens, UniProt Q9Y243). As to the kind of experiment: PKB kinase activity assay. Format: biochemical. The settings on record: dendrimer conc. 1 μM; read-out: Percentage (%) kinase inhibition PKB gamma. On the procedure:
as §5

For the next assay, the target named is PKC alpha (Homo sapiens, UniProt P17252). The experiment in a line: PKC kinase activity assay. The settings on record: dendrimer conc. 1 μM; read-out: Percentage (%) kinase inhibition PKC alpha. The assay is classed as biochemical. The protocol: (§6) In a final reaction volume of […] PKC kinase (h) (5-10 mU) is incubated with 20 mM HEPES pH 7.4, 0.03% Triton X-100, […], 0.1 mg/mL phosphatidylserine, 10 μg/mL diacylglycerol, 0.1 mg/mL histone H1 or 50 μM of the peptide ERMRPRKRQGSVRRRV (SEQ ID No. 20), 10 mM MgAcetate and [γ-33P-ATP] (specific activity approx. 500 cpm/pmol, concentration as required). The reaction is initiated by the addition of the MgATP mix. After incubation for 40 minutes at room temperature, the reaction is stopped by the addition of 5 μL of a 3% phosphoric acid solution. 10 μL of the reaction is then spotted onto a P30 filtermat and washed three times for 5 minutes in 75 mM phosphoric acid and once in methanol prior to drying and scintillation counting.

In a further assay the target is PKC beta I (Homo sapiens, UniProt P05771). As to the kind of experiment: PKC kinase activity assay. Format: biochemical. As to conditions: dendrimer conc. 1 μM; read-out: Percentage (%) kinase inhibition PKC beta I. The protocol: as §6
Chain of PKC beta I (P05771 whole entry): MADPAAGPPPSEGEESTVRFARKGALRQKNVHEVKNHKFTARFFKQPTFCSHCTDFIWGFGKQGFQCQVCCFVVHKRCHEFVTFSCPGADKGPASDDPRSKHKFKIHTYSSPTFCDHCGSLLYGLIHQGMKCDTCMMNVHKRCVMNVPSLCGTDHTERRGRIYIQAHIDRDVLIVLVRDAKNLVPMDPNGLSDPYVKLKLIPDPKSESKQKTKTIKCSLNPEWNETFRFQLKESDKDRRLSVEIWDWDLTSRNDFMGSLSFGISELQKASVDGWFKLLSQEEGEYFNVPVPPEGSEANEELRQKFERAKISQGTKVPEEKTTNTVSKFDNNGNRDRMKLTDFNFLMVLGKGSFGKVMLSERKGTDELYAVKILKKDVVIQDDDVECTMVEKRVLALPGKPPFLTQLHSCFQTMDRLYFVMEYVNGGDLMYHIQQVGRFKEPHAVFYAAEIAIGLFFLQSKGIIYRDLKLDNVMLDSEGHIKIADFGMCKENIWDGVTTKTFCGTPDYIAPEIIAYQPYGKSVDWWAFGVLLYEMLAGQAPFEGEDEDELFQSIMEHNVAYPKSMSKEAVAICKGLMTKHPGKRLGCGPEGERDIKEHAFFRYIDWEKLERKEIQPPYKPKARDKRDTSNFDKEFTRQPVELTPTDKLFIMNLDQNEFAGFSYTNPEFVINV
A further assay addresses PKC beta II (Homo sapiens, UniProt P05771). The experiment in a line: PKC kinase activity assay. Format: biochemical. As to conditions: dendrimer conc. 1 μM; read-out: Percentage (%) kinase inhibition PKC beta II. On the procedure: as §6

Chain of PKB gamma (Q9Y243 whole entry): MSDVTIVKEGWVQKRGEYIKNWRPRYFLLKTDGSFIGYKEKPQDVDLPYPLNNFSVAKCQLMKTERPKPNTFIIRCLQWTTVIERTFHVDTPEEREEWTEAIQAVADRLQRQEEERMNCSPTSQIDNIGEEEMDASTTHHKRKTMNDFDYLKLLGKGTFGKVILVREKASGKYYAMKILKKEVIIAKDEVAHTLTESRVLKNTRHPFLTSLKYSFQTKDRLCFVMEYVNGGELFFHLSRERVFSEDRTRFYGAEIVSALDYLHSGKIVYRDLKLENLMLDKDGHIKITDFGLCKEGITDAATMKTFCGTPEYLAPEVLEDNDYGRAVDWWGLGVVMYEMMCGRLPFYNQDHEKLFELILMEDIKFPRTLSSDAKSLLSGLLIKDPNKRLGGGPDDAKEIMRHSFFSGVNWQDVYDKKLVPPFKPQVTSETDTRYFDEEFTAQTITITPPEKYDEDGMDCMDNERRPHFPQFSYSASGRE
Chain of MEK1 (h) (Q02750 whole entry): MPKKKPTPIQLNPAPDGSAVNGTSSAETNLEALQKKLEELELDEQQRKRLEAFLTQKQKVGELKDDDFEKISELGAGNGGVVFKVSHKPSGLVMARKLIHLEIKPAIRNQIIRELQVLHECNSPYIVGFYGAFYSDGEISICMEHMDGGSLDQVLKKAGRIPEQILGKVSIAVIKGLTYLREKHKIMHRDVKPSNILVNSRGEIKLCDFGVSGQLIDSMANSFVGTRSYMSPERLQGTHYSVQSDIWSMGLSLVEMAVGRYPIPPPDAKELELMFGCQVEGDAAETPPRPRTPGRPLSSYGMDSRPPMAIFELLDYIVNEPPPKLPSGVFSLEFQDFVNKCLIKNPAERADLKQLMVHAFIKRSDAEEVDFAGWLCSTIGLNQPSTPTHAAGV
Chain of PI3K beta (P42338 whole entry, species assumed): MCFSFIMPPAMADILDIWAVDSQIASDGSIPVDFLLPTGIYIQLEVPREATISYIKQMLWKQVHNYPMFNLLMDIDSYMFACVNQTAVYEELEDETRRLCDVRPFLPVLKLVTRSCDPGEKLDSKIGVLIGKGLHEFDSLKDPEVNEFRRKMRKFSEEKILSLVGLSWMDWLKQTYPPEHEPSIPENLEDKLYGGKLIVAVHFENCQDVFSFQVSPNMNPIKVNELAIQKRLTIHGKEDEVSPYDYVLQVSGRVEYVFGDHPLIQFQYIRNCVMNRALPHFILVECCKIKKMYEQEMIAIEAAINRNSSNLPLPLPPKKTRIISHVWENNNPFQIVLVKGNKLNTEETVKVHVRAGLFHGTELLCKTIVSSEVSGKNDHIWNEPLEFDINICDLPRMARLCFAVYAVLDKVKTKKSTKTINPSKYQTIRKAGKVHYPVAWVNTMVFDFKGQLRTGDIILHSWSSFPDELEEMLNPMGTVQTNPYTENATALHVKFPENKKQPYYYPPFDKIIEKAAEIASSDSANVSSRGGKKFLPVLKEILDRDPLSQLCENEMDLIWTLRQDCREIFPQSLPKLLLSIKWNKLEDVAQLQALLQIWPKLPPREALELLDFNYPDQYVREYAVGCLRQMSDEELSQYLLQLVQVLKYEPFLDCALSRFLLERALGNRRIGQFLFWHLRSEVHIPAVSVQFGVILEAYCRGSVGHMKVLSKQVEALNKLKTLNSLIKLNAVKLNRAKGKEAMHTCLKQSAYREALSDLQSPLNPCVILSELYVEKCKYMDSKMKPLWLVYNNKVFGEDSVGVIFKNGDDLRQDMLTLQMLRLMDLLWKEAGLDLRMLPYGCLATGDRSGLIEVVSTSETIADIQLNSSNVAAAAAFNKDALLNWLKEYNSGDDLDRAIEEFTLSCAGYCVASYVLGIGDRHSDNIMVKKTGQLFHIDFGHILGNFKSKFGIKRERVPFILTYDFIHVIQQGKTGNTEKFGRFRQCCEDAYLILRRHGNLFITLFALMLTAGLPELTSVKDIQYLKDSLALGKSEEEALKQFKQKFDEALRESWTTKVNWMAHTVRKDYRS
Chain of PI3K beta (P27986 whole entry partner, species assumed): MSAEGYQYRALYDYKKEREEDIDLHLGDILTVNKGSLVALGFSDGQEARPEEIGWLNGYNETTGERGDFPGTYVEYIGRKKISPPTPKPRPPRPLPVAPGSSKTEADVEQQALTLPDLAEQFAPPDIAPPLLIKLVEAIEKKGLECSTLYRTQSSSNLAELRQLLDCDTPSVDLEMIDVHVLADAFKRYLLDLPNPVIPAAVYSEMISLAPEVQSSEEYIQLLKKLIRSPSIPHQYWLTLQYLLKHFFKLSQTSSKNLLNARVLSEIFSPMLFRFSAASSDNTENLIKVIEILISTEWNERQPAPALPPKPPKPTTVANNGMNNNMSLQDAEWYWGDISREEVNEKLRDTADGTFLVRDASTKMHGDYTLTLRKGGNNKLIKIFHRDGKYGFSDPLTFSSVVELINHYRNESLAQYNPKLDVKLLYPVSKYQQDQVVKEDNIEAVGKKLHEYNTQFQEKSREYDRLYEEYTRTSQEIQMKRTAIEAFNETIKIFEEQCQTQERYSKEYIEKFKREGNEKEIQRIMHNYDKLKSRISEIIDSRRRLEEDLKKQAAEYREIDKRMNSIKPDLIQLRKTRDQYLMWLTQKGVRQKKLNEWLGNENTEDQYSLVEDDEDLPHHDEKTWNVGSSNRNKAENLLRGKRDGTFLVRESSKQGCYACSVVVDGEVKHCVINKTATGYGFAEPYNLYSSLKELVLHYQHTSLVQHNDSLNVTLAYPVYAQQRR
Chain of c-RAF (h) (P04049 whole entry): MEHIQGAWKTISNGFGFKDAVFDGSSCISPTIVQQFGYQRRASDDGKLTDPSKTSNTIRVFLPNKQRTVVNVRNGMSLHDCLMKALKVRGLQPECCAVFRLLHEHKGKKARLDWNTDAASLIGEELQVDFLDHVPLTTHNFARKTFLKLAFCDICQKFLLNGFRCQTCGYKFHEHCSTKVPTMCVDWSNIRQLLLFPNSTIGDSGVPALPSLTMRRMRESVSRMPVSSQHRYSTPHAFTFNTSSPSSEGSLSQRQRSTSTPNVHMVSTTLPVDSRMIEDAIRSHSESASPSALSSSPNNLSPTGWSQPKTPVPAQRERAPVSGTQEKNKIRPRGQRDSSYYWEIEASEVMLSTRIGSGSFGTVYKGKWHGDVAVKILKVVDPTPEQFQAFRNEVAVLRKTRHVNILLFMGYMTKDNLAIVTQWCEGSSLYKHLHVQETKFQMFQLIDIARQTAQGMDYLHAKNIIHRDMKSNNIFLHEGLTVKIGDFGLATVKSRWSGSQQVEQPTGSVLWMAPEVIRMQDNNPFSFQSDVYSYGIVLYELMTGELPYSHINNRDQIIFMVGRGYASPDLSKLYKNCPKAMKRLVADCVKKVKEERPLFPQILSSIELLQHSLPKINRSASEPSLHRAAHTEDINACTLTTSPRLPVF

On to AAVALLPAVLLALLARSKAKNPLYR [IK2], for which, in assay [1] (5 μM or 10 μM IK2 peptide, FIGS. 7A, 7B), the “observed inhibition in combination with oxaliplatin versus calculated additive effect, ADDP cells” value was “synergistic outcome”. Moreover, the “effect in combination with cisplatin versus calculated additive effect, ADDP cells” value in assay [1] (30 μM IK2 peptide, FIG. 8) is “synergistic effect”. Further, the “inhibition of the growth of ADDP cancer cells in combination with cisplatin” value in assay [1] (compared to cisplatin or IK2 alone, FIG. 6) is “high level inhibition of the growth”. Besides, in [1] (compared to oxaliplatin or IK2 alone), the “inhibition of the growth of ADDP cancer cells in combination with oxaliplatin” value is recorded as “high level inhibition of the growth”. Besides, in assay [2] (30 μM IK2 peptide, FIG. 9), the “effect in combination with cisplatin versus calculated additive effect, HT29 cells” value is given as “synergistic effect”.
For the molecule “dendrimer presenting 12 monomer units of the peptide RSKAKNPLYR [Dend 12-10(4)]”, in [2] (MTT, 48 hours), the IC50 (in general, the concentration that gives 50% inhibition) came out at 1000 nM; the “dendrimer concentration required for total kill, HT29 cells” value was 10 µM; the “inhibition of proliferation of HT29 cells” value is “more effective than Dend 9-10(4)”.
For the molecule `CC(C)C[C@@H](NC(=O)[C@H]1CCCN1C(=O)[C@@H](CC(N)=O)NC(=O)[C@@H](CCCNC(=N)N)NC(=O)[C@@H](C)NC(=O)[C@@H](CCCNC(=N)N)NC(=O)[C@@H](CO)NC(=O)[C@H](N)CCCNC(=N)N)C(=O)N[C@H](Cc1ccc(O)cc1)C(=O)N[C@H](CCCNC(=N)N)C(=O)NCCCC[C@H](NC(=O)[C@H](CCCCNC(=O)[C@H](CCCCNC(=O)[C@@H](CCCNC(=N)N)NC(=O)[C@@H](Cc1ccc(O)cc1)NC(=O)[C@@H](CC(C)C)NC(=O)[C@H]1CCCN1C(=O)[C@@H](CC(N)=O)NC(=O)[C@@H](CCCNC(=N)N)NC(=O)[C@@H](C)NC(=O)[C@@H](CCCNC(=N)N)NC(=O)[C@@H](CO)NC(=O)[C@H](N)CCCNC(=N)N)NC(=O)[C@@H](CCCNC(=N)N)NC(=O)[C@@H](Cc1ccc(O)cc1)NC(=O)[C@@H](CC(C)C)NC(=O)[C@H]1CCCN1C(=O)[C@@H](CC(N)=O)NC(=O)[C@@H](CCCNC(=N)N)NC(=O)[C@@H](C)NC(=O)[C@@H](CCCNC(=N)N)NC(=O)[C@@H](CO)NC(=O)[C@H](N)CCCNC(=N)N)NC(=O)[C@H](CCCCNC(=O)[C@@H](CCCNC(=N)N)NC(=O)[C@@H](Cc1ccc(O)cc1)NC(=O)[C@@H](CC(C)C)NC(=O)[C@H]1CCCN1C(=O)[C@@H](CC(N)=O)NC(=O)[C@@H](CCCNC(=N)N)NC(=O)[C@@H](C)NC(=O)[C@@H](CCCNC(=N)N)NC(=O)[C@@H](CO)NC(=O)[C@H](N)CCCNC(=N)N)NC(=O)[C@@H](CCCNC(=N)N)NC(=O)[C@@H](Cc1ccc(O)cc1)NC(=O)[C@@H](CC(C)C)NC(=O)[C@H]1CCCN1C(=O)[C@@H](CC(N)=O)NC(=O)[C@@H](CCCNC(=N)N)NC(=O)[C@@H](C)NC(=O)[C@@H](CCCNC(=N)N)NC(=O)[C@@H](CO)NC(=O)[C@H](N)CCCNC(=N)N)C(=O)NCCCC[C@H](NC(=O)[C@H](CCCCNC(=O)[C@@H](CCCNC(=N)N)NC(=O)[C@@H](Cc1ccc(O)cc1)NC(=O)[C@@H](CC(C)C)NC(=O)[C@H]1CCCN1C(=O)[C@@H](CC(N)=O)NC(=O)[C@@H](CCCNC(=N)N)NC(=O)[C@@H](C)NC(=O)[C@@H](CCCNC(=N)N)NC(=O)[C@@H](CO)NC(=O)[C@H](N)CCCNC(=N)N)NC(=O)[C@H](CCCCNC(=O)[C@H](CCCCNC(=O)[C@@H](CCCNC(=N)N)NC(=O)[C@@H](Cc1ccc(O)cc1)NC(=O)[C@@H](CC(C)C)NC(=O)[C@H]1CCCN1C(=O)[C@@H](CC(N)=O)NC(=O)[C@@H](CCCNC(=N)N)NC(=O)[C@@H](C)NC(=O)[C@@H](CCCNC(=N)N)NC(=O)[C@@H](CO)NC(=O)[C@H](N)CCCNC(=N)N)NC(=O)[C@@H](CCCNC(=N)N)NC(=O)[C@@H](Cc1ccc(O)cc1)NC(=O)[C@@H](CC(C)C)NC(=O)[C@H]1CCCN1C(=O)[C@@H](CC(N)=O)NC(=O)[C@@H](CCCNC(=N)N)NC(=O)[C@@H](C)NC(=O)[C@@H](CCCNC(=N)N)NC(=O)[C@@H](CO)NC(=O)[C@H](N)CCCNC(=N)N)NC(=O)[C@H](CCCCNC(=O)[C@@H](CCCNC(=N)N)NC(=O)[C@@H](Cc1ccc(O)cc1)NC(=O)[C@@H](CC(C)C)NC(=O)[C@H]1CCCN1C(=O)[C@@H](CC(N)=O)NC(=O)[C@@H](CCCNC(=N)N)NC(=O)[C@@H](C)NC(=O)[C@@H](CCCNC(=N)N)NC(=O)[C@@H](CO)NC(=O)[C@H](N)CCCNC(=N)N)NC(=O)[C@@H](CCCNC(=N)N)NC(=O)[C@@H](Cc1ccc(O)cc1)NC(=O)[C@@H](CC(C)C)NC(=O)[C@H]1CCCN1C(=O)[C@@H](CC(N)=O)NC(=O)[C@@H](CCCNC(=N)N)NC(=O)[C@@H](C)NC(=O)[C@@H](CCCNC(=N)N)NC(=O)[C@@H](CO)NC(=O)[C@H](N)CCCNC(=N)N)C(=O)NCCC(N)=O`, the inhibition – broadly, the share of the control response that was lost under treatment – at 1 µM worked out at 61% at PI3K P110δ; 24% at PI3K beta; 85% at c-RAF (h); 95% at MEK1 (h); 87% on PKB beta; 97% on PKB gamma. The inhibition at 1 µM at PKC alpha came out at 53%; at PKC beta I, 79%; on PKC beta II, 77%.

Values taken from patent publication US20120277161A1, “INHIBITION OF MULTIPLE CELL ACTIVATION PATHWAYS” (INTER-K PTY LIMITED, priority 2009, published 2012).
